# Laboratory results reported in patent EP4467141A1, “PYRAZOLO-QUINOLINES AS SELECTIVE INHIBITORS OF GENOTOXIC STRESS-INDUCED IKK/NF- KB PATHWAYS FOR CANCER THERAPY” (Max-Delbrück-Centrum für Molekulare Medizin in der …, priority 2023, dated 2024).
# Columns and labels:
# Assay in all cases: Kinase panel study
# Type in all cases: biochemical
# Settings in all cases: read-out: Percentage of inhibition; for inhibition at 1 µM: 1000nM; for inhibition at 10 µM: 10000nM
# AMPK (A1/B2/G2) = molecular target: T1, AMPK (A1/B2/G2) (Homo sapiens, UniProt Q13131)
# T1 construct: purchased Thermo Fisher Scientific
# Outline: (§1)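 Percent inhibition of each kinase by the test compound, given at either 1 µM or 10 µM, came from a contracted panel run by ZLyte or Adapta protocol.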
# AMPK (A1/B2/G3) = molecular target: T2, AMPK (A1/B2/G3) (Homo sapiens, UniProt Q13131)
# T2 construct: purchased Thermo Fisher Scientific
# Outline: as §1
# EEF2K = molecular target: T3, EEF2K (Homo sapiens, UniProt O00418)
# T3 construct: purchased Thermo Fisher Scientific
# Outline: as §1
# EGFR (ErbB1) T790M L858R = molecular target: T4, EGFR (ErbB1) T790M L858R (Homo sapiens, UniProt P00533, L858R/T790M)
# T4 construct: purchased Thermo Fisher Scientific
# Outline: as §1
# EPHA5 = molecular target: T5, EPHA5 (Homo sapiens, UniProt P54756)
# T5 construct: purchased Thermo Fisher Scientific
# Outline: as §1
# HCK = molecular target: T6, HCK (Homo sapiens, UniProt P08631)
# T6 construct: purchased Thermo Fisher Scientific
# Outline: as §1
# HIPK1 (Myak) = molecular target: T7, HIPK1 (Myak) (Homo sapiens, UniProt Q86Z02)
# T7 construct: purchased Thermo Fisher Scientific
# Outline: as §1
# HIPK4 = molecular target: T8, HIPK4 (Homo sapiens, UniProt Q8NE63)
# T8 construct: purchased Thermo Fisher Scientific
# T8 sequence (Q8NE63 1-616): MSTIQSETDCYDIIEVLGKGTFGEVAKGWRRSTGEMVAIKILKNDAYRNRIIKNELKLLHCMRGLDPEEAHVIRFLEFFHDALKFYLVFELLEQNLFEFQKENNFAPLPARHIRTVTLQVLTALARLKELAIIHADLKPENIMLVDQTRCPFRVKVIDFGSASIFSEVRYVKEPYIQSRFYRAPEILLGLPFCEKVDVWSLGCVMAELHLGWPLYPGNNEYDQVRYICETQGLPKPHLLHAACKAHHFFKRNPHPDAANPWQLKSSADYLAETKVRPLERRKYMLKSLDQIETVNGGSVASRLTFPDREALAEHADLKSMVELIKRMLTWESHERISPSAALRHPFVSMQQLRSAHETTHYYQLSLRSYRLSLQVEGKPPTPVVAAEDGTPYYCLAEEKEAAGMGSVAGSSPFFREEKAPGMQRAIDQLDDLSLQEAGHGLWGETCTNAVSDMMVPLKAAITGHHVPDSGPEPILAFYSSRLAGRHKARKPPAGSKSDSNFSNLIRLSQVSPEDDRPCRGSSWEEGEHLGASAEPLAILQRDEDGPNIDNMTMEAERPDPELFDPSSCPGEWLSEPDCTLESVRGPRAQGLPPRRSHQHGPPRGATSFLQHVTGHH
# Outline: as §1
# PLK1 = molecular target: T9, PLK1 (Homo sapiens, UniProt P53350)
# T9 construct: purchased Thermo Fisher Scientific
# Outline: as §1
# RPS6KA1 (RSK1) = molecular target: T10, RPS6KA1 (RSK1) (Homo sapiens, UniProt Q15418)
# T10 construct: purchased Thermo Fisher Scientific
# Outline: as §1
# SPHK2 = molecular target: T11, SPHK2 (Homo sapiens, UniProt Q9NRA0)
# T11 construct: purchased Thermo Fisher Scientific
# T11 sequence (Q9NRA0 1-654): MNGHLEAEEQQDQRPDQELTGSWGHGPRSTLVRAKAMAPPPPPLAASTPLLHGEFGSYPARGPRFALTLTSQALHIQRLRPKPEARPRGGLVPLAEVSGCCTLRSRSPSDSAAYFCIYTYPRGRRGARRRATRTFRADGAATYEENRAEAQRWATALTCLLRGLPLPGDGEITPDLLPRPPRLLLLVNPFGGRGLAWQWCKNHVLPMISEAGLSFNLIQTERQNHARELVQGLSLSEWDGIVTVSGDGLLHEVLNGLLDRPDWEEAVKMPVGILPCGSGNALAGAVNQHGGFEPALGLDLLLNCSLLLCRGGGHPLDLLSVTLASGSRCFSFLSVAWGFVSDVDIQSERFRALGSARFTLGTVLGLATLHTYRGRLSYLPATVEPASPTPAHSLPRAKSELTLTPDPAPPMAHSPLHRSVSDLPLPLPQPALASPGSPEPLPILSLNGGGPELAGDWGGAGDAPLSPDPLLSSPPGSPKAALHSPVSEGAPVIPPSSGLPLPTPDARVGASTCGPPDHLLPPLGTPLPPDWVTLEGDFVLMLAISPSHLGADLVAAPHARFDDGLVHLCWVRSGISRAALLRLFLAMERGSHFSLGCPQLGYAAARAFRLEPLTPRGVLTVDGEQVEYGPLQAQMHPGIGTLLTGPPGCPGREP
# Outline: as §1
# T4 sequence (P00533 25-1210 T790M/L858R): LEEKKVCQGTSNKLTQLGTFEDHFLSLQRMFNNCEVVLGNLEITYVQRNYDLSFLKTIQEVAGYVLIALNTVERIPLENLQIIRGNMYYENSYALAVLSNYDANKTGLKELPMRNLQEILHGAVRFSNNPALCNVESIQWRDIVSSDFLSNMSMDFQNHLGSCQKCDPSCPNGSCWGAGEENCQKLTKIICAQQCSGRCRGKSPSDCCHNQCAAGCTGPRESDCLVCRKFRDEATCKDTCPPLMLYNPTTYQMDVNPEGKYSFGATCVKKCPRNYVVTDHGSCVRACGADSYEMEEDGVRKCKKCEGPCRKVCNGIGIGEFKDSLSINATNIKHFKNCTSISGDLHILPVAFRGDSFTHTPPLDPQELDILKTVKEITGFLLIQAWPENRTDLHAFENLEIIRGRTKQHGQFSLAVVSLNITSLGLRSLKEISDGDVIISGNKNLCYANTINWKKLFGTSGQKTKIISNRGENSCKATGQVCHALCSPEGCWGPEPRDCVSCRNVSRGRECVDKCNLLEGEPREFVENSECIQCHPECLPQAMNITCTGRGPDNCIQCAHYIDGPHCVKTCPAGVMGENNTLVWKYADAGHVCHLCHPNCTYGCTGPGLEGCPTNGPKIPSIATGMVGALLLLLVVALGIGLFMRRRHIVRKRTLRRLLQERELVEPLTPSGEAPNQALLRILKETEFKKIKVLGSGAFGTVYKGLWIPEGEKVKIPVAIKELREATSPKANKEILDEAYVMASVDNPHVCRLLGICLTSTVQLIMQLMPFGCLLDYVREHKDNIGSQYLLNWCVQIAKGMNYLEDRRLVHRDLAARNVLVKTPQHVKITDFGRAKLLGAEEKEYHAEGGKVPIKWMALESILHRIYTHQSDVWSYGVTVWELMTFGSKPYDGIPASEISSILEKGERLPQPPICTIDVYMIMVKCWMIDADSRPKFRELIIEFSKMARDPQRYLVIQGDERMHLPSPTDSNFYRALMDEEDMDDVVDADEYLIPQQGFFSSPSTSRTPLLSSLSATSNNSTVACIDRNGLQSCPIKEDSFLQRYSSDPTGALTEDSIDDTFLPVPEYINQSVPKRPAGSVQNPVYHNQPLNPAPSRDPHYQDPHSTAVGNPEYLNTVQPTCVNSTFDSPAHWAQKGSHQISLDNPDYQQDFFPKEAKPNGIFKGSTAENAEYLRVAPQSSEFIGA
# T5 sequence (P54756 25-1037): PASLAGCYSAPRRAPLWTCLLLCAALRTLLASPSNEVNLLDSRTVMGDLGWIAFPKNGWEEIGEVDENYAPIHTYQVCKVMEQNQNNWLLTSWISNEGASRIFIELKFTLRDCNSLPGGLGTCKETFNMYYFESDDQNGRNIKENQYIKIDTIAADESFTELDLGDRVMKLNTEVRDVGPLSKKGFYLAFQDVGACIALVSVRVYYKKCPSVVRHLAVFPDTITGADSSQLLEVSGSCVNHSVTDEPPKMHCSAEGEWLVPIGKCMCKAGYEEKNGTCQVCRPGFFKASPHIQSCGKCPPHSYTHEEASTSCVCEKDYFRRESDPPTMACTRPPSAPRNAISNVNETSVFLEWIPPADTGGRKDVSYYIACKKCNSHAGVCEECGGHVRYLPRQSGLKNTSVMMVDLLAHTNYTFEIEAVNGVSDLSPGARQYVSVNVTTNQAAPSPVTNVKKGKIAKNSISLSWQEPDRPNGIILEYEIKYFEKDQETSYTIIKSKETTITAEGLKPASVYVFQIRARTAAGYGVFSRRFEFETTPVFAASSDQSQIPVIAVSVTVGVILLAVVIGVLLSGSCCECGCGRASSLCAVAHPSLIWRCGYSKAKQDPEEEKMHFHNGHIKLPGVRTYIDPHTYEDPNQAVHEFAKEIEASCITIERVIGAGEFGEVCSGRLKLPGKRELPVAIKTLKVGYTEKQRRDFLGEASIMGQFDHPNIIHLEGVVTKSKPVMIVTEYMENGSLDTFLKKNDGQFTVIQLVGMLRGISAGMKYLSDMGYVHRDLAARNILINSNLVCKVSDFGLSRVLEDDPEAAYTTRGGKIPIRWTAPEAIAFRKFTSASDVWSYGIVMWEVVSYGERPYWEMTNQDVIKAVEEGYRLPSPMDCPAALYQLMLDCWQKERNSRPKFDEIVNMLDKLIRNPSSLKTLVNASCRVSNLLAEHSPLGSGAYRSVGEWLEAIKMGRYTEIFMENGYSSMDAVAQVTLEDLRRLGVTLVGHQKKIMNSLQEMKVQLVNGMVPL
# T2 sequence (Q13131 whole entry): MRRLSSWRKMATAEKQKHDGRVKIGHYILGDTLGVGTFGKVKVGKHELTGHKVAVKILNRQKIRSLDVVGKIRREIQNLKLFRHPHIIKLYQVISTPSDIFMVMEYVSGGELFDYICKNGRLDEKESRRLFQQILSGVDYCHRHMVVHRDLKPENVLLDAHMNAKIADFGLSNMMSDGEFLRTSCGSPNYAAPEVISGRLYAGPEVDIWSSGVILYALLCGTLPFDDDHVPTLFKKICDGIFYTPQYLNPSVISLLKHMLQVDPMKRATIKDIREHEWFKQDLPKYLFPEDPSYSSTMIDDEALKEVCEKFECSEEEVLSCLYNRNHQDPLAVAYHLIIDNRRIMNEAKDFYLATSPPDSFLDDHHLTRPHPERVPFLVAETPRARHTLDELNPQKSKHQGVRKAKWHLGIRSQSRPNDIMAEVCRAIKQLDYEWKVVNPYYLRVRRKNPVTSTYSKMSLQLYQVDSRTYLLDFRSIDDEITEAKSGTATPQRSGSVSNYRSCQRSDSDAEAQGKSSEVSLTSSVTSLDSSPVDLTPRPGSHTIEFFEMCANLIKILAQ
# T2 sequence (O43741 whole entry partner): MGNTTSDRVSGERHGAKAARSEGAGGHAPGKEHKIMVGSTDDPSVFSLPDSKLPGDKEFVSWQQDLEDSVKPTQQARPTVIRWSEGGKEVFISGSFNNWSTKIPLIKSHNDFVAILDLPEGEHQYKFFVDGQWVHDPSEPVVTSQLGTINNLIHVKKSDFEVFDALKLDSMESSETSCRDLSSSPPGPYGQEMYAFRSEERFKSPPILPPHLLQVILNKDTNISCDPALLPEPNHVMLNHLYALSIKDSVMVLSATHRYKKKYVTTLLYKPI
# T2 sequence (Q9UGI9 whole entry partner): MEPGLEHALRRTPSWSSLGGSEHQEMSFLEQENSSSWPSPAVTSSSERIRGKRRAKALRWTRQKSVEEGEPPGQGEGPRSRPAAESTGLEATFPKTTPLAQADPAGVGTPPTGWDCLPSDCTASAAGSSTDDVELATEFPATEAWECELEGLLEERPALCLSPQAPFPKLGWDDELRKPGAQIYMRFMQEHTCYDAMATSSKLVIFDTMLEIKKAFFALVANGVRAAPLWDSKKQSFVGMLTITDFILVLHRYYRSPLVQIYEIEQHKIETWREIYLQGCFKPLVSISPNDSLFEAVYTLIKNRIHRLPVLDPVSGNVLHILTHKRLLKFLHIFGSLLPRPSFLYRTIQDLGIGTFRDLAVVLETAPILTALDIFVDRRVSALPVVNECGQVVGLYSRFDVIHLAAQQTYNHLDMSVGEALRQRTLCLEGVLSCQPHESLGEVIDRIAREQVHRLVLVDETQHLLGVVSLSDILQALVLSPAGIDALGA
# T1 sequence (Q13131 whole entry): as the sequence (Q13131 whole entry) above
# T1 sequence (O43741 whole entry partner): as the sequence (O43741 whole entry partner) above
# T1 sequence (Q9UGJ0 whole entry partner): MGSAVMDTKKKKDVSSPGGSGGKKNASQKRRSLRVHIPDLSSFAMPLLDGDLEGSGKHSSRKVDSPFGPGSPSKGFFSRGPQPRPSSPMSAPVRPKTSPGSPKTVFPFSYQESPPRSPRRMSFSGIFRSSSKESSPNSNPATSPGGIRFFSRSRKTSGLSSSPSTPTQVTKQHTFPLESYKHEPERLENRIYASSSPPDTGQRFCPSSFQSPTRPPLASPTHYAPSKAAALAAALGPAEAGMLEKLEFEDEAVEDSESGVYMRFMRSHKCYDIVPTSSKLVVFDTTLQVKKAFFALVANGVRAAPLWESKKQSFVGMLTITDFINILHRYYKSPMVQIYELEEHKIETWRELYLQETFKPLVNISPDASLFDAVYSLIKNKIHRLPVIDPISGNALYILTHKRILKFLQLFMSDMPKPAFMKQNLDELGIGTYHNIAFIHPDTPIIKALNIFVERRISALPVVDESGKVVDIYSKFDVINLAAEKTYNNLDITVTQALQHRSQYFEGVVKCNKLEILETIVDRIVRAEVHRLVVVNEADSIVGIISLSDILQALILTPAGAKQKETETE
# T10 sequence (Q15418 whole entry): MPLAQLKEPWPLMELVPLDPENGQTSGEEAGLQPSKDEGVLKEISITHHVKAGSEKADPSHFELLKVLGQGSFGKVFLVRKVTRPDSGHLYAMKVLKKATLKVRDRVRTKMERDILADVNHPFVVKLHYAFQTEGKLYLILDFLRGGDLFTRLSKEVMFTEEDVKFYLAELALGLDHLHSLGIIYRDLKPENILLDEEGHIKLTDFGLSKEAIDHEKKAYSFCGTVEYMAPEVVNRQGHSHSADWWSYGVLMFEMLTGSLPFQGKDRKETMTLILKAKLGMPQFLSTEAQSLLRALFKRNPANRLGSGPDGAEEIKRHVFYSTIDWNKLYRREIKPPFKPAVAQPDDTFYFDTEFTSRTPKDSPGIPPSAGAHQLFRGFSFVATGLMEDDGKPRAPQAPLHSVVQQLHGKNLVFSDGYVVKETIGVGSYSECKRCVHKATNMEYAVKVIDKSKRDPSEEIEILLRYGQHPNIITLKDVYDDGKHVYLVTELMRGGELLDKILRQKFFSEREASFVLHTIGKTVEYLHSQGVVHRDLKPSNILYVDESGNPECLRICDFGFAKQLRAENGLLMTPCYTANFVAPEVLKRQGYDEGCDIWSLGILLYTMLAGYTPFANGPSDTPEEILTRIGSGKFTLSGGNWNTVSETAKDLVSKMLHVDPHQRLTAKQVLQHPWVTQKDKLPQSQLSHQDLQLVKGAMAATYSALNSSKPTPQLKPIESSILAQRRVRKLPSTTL
SMILES,inhibition at 1 µM (AMPK (A1/B2/G2)),inhibition at 10 µM (AMPK (A1/B2/G2)),inhibition at 1 µM (AMPK (A1/B2/G3)),inhibition at 10 µM (AMPK (A1/B2/G3)),inhibition at 1 µM (EEF2K),inhibition at 10 µM (EEF2K),inhibition at 1 µM (EGFR (ErbB1) T790M L858R),inhibition at 10 µM (EGFR (ErbB1) T790M L858R),inhibition at 1 µM (EPHA5),inhibition at 10 µM (EPHA5),inhibition at 1 µM (HCK),inhibition at 10 µM (HCK),inhibition at 1 µM (HIPK1 (Myak)),inhibition at 10 µM (HIPK1 (Myak)),inhibition at 1 µM (HIPK4),inhibition at 10 µM (HIPK4),inhibition at 1 µM (PLK1),inhibition at 10 µM (PLK1),inhibition at 1 µM (RPS6KA1 (RSK1)),inhibition at 10 µM (RPS6KA1 (RSK1)),other results
"COc1ccc2c(c1OC)c(=O)n1c3ccc(O)cc3c3ccnc2c31 [MW01, 5-Hydroxy-10,11-dimethoxy-9H-benzo[c]indolo[3,2,1-ij][1,5]naphthyridin-9-one]",-6%,5%,3%,19%,11%,37%,9%,29%,-4%,7%,13%,22%,21%,47%,42%,62%,5%,3%,12%,19%,inhibition at 1 µM (SPHK2): -16%; inhibition at 10 µM (SPHK2): -8%
"COc1ccc2cc3c(N)nn(C(=O)c4cccc(N(C)C)c4)c3nc2c1 [MW05, (3-Amino-7-methoxypyrazolo[3,4-b]quinolin-1-yl)-[3-(dimethylamino)phenyl]methanone]",-10%,4%,0%,-6%,3%,5%,-5%,10%,-8%,-16%,10%,9%,-4%,-6%,12%,8%,6%,6%,10%,3%,inhibition at 1 µM (SPHK2): -7%; inhibition at 10 µM (SPHK2): -4%
